Consider one compound from patent publication US20110295037A1, “PROCESSES FOR PREPARING CINACALCET HYDROCHLORIDE AND POLYMORPHIC FORMS THEREOF” (MEDICHEM, S.A., priority 2006, published 2011).

The nature of the data set: Particle size distribution (Malvern Mastersizer S, by volume). In kind it is physicochemical. The conditions noted are these: hydrochloride. The method, then:
VI. Particle Size Distribution Method
The particle size for cinacalcet hydrochloride was measured using a Malvern Mastersizer S particle size analyzer with an MS1 Small Volume Sample Dispersion Unit stirred cell. A 300RF mm lens and a beam length of 2.4 mm were used. Samples for analysis were prepared by dispersing a weighed amount of cinacalcet hydrochloride (approximately 60 mg) in 20 mL of sample dispersant, previously prepared by dilution of 1.5 g of Soybean Lecithin to 200 mL with Isopar G. The suspension was delivered drop-wise to a background corrected measuring cell previously filled with dispersant (Isopar G) until the obscuration reached the desired level. Volume distributions were obtained for three times. After completing the measurements, the sample cell was emptied and cleaned, refilled with suspending medium, and the sampling procedure repeated again. For characterization, the values of D10, D50 and D90 (by volume) were specifically listed, each one being the mean of the nine values available for each characterization parameter.

SMILES strings stand for the structures.

On to `C[C@@H](NCCCc1cccc(C(F)(F)F)c1)c1cccc2ccccc12.Cl` [cinacalcet hydrochloride, N-[1-(R)-(−)-(1-naphthyl)ethyl]-3-[3-(trifluoromethyl)phenyl]-1-aminopropane hydrochloride], for which the “particle size distribution D90 (v)” value runs as follows: (after milling) 24 μm; (after recrystallization from heptane-isobutylacetate) 263 μm; (after recrystallization from isobutylacetate) 47 μm.
